In US12077503B2, “Substituted cyclic amides and their use as herbicides” (FMC CORPORATION, priority 2015, dated 2024):

Legend:
Assay type in all cases: in vivo
[1] = tested on: ivy-leaved morning glory (Ipomoea hederacea); experiment: Test G Pre-Emergence Protocol; settings: Ipomoea, pre-emergence, 312 h, evaluated after 13 days; for pest or weed control at 15.625 g/ha: 15.625 g ai/ha; for pest or weed control at 15.625 g/ha / pest or weed control at 250 g/ha: read-out: Morningglory, Ivy-leaved damage rating (100=total damage to plant; 0=no damage to plant); for pest or weed control at 62.5 g/ha: 62.5 g ai/ha, 100=total damage to plant, 0=no damage to plant, read-out: Morningglory, Ivy-leaved damage rating; for pest or weed control at 250 g/ha: 250 g ai/ha
Outline: (§1)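 One day after sowing, pots are treated with a spray of test compound formulated in acetone/water 50:50 plus 0.5% Tween 20, giving 15.625, 62.5 or 250 g/ha. Evaluation on a 0–100 damage scale follows 13 days of glasshouse growth.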

[2] = tested on: giant foxtail (Setaria faberi); experiment: Test G Pre-Emergence Protocol; settings: Setaria faberi, pre-emergence, 312 h, evaluated after 13 days; for pest or weed control at 15.625 g/ha: 15.625 g ai/ha; for pest or weed control at 15.625 g/ha / pest or weed control at 250 g/ha: read-out: Foxtail, Giant damage rating (100=total damage to plant; 0=no damage to plant); for pest or weed control at 62.5 g/ha: 62.5 g ai/ha, 100=total damage to plant, 0=no damage to plant, read-out: Foxtail, Giant damage rating; for pest or weed control at 250 g/ha: 250 g ai/ha
Outline: as §1

[3] = tested on: velvetleaf (Abutilon theophrasti); experiment: Test G Pre-Emergence Protocol; settings: Abutilon theophrasti, pre-emergence, 312 h, evaluated after 13 days; for pest or weed control at 15.625 g/ha: 15.625 g ai/ha; for pest or weed control at 15.625 g/ha / pest or weed control at 250 g/ha: read-out: Velvetleaf damage rating (100=total damage to plant; 0=no damage to plant); for pest or weed control at 62.5 g/ha: 62.5 g ai/ha, 100=total damage to plant, 0=no damage to plant, read-out: Velvetleaf damage rating; for pest or weed control at 250 g/ha: 250 g ai/ha
Outline: as §1

[4] = tested on: barnyardgrass (Echinochloa crus-galli); experiment: Test G Pre-Emergence Protocol; settings: Echinochloa crus-galli, pre-emergence, 312 h, evaluated after 13 days; for pest or weed control at 15.625 g/ha: 15.625 g ai/ha; for pest or weed control at 15.625 g/ha / pest or weed control at 250 g/ha: read-out: Barnyardgrass damage rating (100=total damage to plant; 0=no damage to plant); for pest or weed control at 62.5 g/ha: 62.5 g ai/ha, 100=total damage to plant, 0=no damage to plant, read-out: Barnyardgrass damage rating; for pest or weed control at 250 g/ha: 250 g ai/ha
Outline: as §1

[5] = tested on: redroot pigweed (Amaranthus retroflexus); experiment: Test G Pre-Emergence Protocol; settings: Amaranthus retroflexus, pre-emergence, 312 h, evaluated after 13 days; for pest or weed control at 15.625 g/ha: 15.625 g ai/ha; for pest or weed control at 15.625 g/ha / pest or weed control at 250 g/ha: read-out: Pigweed, Redroot damage rating (100=total damage to plant; 0=no damage to plant); for pest or weed control at 62.5 g/ha: 62.5 g ai/ha, 100=total damage to plant, 0=no damage to plant, read-out: Pigweed, Redroot damage rating; for pest or weed control at 250 g/ha: 250 g ai/ha
Outline: as §1

corn (Zea mays) [6] = experiment: Test G Pre-Emergence Protocol; settings: Zea mays, pre-emergence, 312 h, evaluated after 13 days; for plant injury at 15.625 g/ha: 15.625 g ai/ha; for plant injury at 15.625 g/ha / plant injury at 250 g/ha: read-out: Corn damage rating (100=total damage to plant; 0=no damage to plant); for plant injury at 62.5 g/ha: 62.5 g ai/ha, 100=total damage to plant, 0=no damage to plant, read-out: Corn damage rating; for plant injury at 250 g/ha: 250 g ai/ha
Outline: as §1

[7] = tested on: ivy-leaved morning glory (Ipomoea hederacea); experiment: Test G Post-Emergence Protocol; settings: Ipomoea, post-emergence, 312 h, read-out: Morningglory, Ivy-leaved damage rating; for pest or weed control at 15.625 g/ha: 15.625 g ai/ha, evaluated after 13 days (100=total damage to plant; 0=no damage to plant); for pest or weed control at 62.5 g/ha: 62.5 g ai/ha; for pest or weed control at 62.5 g/ha / pest or weed control at 250 g/ha: evaluated after 13 days, 100=total damage to plant, 0=no damage to plant; for pest or weed control at 250 g/ha: 250 g ai/ha
Outline: (§2)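 Scores run 0 (no damage) to 100 (total damage) and were taken 13 days after spraying. Plants had been raised in pots for 8 days under glasshouse control (24/16 °C, 14 h photoperiod, 65% humidity) and then treated at 15.625, 62.5 or 250 g/ha.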

[8] = tested on: giant foxtail (Setaria faberi); experiment: Test G Post-Emergence Protocol; settings: Setaria faberi, post-emergence, 312 h, read-out: Foxtail, Giant damage rating; for pest or weed control at 15.625 g/ha: 15.625 g ai/ha, evaluated after 13 days (100=total damage to plant; 0=no damage to plant); for pest or weed control at 62.5 g/ha: 62.5 g ai/ha; for pest or weed control at 62.5 g/ha / pest or weed control at 250 g/ha: evaluated after 13 days, 100=total damage to plant, 0=no damage to plant; for pest or weed control at 250 g/ha: 250 g ai/ha
Outline: as §2

[9] = tested on: velvetleaf (Abutilon theophrasti); experiment: Test G Post-Emergence Protocol; settings: Abutilon theophrasti, post-emergence, 312 h, read-out: Velvetleaf damage rating; for pest or weed control at 15.625 g/ha: 15.625 g ai/ha, evaluated after 13 days (100=total damage to plant; 0=no damage to plant); for pest or weed control at 62.5 g/ha: 62.5 g ai/ha; for pest or weed control at 62.5 g/ha / pest or weed control at 250 g/ha: evaluated after 13 days, 100=total damage to plant, 0=no damage to plant; for pest or weed control at 250 g/ha: 250 g ai/ha
Outline: as §2

[10] = tested on: barnyardgrass (Echinochloa crus-galli); experiment: Test G Post-Emergence Protocol; settings: Echinochloa crus-galli, post-emergence, 312 h, read-out: Barnyardgrass damage rating; for pest or weed control at 15.625 g/ha: 15.625 g ai/ha, evaluated after 13 days (100=total damage to plant; 0=no damage to plant); for pest or weed control at 62.5 g/ha: 62.5 g ai/ha; for pest or weed control at 62.5 g/ha / pest or weed control at 250 g/ha: evaluated after 13 days, 100=total damage to plant, 0=no damage to plant; for pest or weed control at 250 g/ha: 250 g ai/ha
Outline: as §2

[11] = tested on: redroot pigweed (Amaranthus retroflexus); experiment: Test G Post-Emergence Protocol; settings: Amaranthus retroflexus, post-emergence, 312 h, read-out: Pigweed, Redroot damage rating; for pest or weed control at 15.625 g/ha: 15.625 g ai/ha, evaluated after 13 days (100=total damage to plant; 0=no damage to plant); for pest or weed control at 62.5 g/ha: 62.5 g ai/ha; for pest or weed control at 62.5 g/ha / pest or weed control at 250 g/ha: evaluated after 13 days, 100=total damage to plant, 0=no damage to plant; for pest or weed control at 250 g/ha: 250 g ai/ha
Outline: as §2

corn (Zea mays) [12] = experiment: Test G Post-Emergence Protocol; settings: Zea mays, post-emergence, 312 h, read-out: Corn damage rating; for plant injury at 15.625 g/ha: 15.625 g ai/ha, evaluated after 13 days (100=total damage to plant; 0=no damage to plant); for plant injury at 62.5 g/ha: 62.5 g ai/ha; for plant injury at 62.5 g/ha / plant injury at 250 g/ha: evaluated after 13 days, 100=total damage to plant, 0=no damage to plant; for plant injury at 250 g/ha: 250 g ai/ha
Outline: as §2

Structure (SMILES) | pest or weed control at 15.625 g/ha [1] [%] | pest or weed control at 62.5 g/ha [1] [%] | pest or weed control at 250 g/ha [1] [%] | pest or weed control at 15.625 g/ha [2] [%] | pest or weed control at 62.5 g/ha [2] [%] | pest or weed control at 250 g/ha [2] [%] | pest or weed control at 15.625 g/ha [3] [%] | pest or weed control at 62.5 g/ha [3] [%] | pest or weed control at 250 g/ha [3] [%] | pest or weed control at 15.625 g/ha [4] [%] | pest or weed control at 62.5 g/ha [4] [%] | pest or weed control at 250 g/ha [4] [%] | pest or weed control at 15.625 g/ha [5] [%] | pest or weed control at 62.5 g/ha [5] [%] | pest or weed control at 250 g/ha [5] [%] | plant injury at 15.625 g/ha (corn (Zea mays) [6]) [%] | plant injury at 62.5 g/ha (corn (Zea mays) [6]) [%] | plant injury at 250 g/ha (corn (Zea mays) [6]) [%] | pest or weed control at 15.625 g/ha [7] [%] | pest or weed control at 62.5 g/ha [7] [%] | other results
CN1C[C@H](c2ccc(C(F)(F)F)cc2)[C@@H](C(=O)Nc2cccc3ccsc23)C1=O (racemic) [Compound 1757] | 0 | 0 | 0 | 0 | 30 | 70 | 0 | 0 | 0 | 0 | 10 | 10 | 0 | 0 | 0 | 0 | 0 | 0 | 0 | 0 | pest or weed control at 250 g/ha [7]: 10%; pest or weed control at 15.625 g/ha [8]: 0%; pest or weed control at 62.5 g/ha [8]: 20%; pest or weed control at 250 g/ha [8]: 60%; pest or weed control at 15.625 g/ha [9]: 0%; pest or weed control at 62.5 g/ha [9]: 0%; pest or weed control at 250 g/ha [9]: 0%; pest or weed control at 15.625 g/ha [10]: 0%; pest or weed control at 62.5 g/ha [10]: 10%; pest or weed control at 250 g/ha [10]: 30%; pest or weed control at 15.625 g/ha [11]: 0%; pest or weed control at 62.5 g/ha [11]: 0%; pest or weed control at 250 g/ha [11]: 0%; plant injury at 15.625 g/ha (corn (Zea mays) [12]): 0%; plant injury at 62.5 g/ha (corn (Zea mays) [12]): 0%; plant injury at 250 g/ha (corn (Zea mays) [12]): 0%
CN1CC(c2ccc(Cl)c([N+](=O)[O-])c2)C(C(=O)Nc2cccc(F)c2F)C1=O (centres unmarked) [Compound 1685] | 10 | 20 | 30 | 40 | 70 | 90 | 10 | 10 | 30 | 30 | 70 | 80 | 0 | 10 | 60 | 0 | 0 | 60 | 40 | 30 | pest or weed control at 250 g/ha [7]: 70%; pest or weed control at 15.625 g/ha [8]: 70%; pest or weed control at 62.5 g/ha [8]: 70%; pest or weed control at 250 g/ha [8]: 80%; pest or weed control at 15.625 g/ha [9]: 10%; pest or weed control at 62.5 g/ha [9]: 30%; pest or weed control at 250 g/ha [9]: 60%; pest or weed control at 15.625 g/ha [10]: 30%; pest or weed control at 62.5 g/ha [10]: 60%; pest or weed control at 250 g/ha [10]: 80%; pest or weed control at 15.625 g/ha [11]: 40%; pest or weed control at 62.5 g/ha [11]: 50%; pest or weed control at 250 g/ha [11]: 70%; plant injury at 15.625 g/ha (corn (Zea mays) [12]): 10%; plant injury at 62.5 g/ha (corn (Zea mays) [12]): 40%; plant injury at 250 g/ha (corn (Zea mays) [12]): 70%
Cc1cc(C#N)cc(C2CN(C)C(=O)C2C(=O)Nc2cccc(F)c2F)c1 (centres unmarked) [Compound 1691] | 0 | 20 | 50 | 60 | 90 | 90 | 0 | 40 | 60 | 20 | 70 | 80 | 0 | 20 | 30 | 0 | 20 | 80 | 0 | 60 | pest or weed control at 250 g/ha [7]: 30%; pest or weed control at 15.625 g/ha [8]: 60%; pest or weed control at 62.5 g/ha [8]: 80%; pest or weed control at 15.625 g/ha [9]: 0%; pest or weed control at 62.5 g/ha [9]: 10%; pest or weed control at 250 g/ha [9]: 20%; pest or weed control at 15.625 g/ha [10]: 30%; pest or weed control at 62.5 g/ha [10]: 70%; pest or weed control at 250 g/ha [10]: 70%; pest or weed control at 15.625 g/ha [11]: 0%; pest or weed control at 62.5 g/ha [11]: 0%; pest or weed control at 250 g/ha [11]: 0%; plant injury at 15.625 g/ha (corn (Zea mays) [12]): 0%; plant injury at 62.5 g/ha (corn (Zea mays) [12]): 0%; plant injury at 250 g/ha (corn (Zea mays) [12]): 70%
